In patent US12459921B2, “Isoindoline compound, preparation method, pharmaceutical composition and use thereof” (SHANGHAI INSTITUTE OF MATERIA MEDICA, CHINESE ACADEMY OF …, priority 2018, dated 2025):
Read-outs that look alike come from different tables or passages of the source.

Assays:
MM.1S cells = assay: Inhibitory effect on the proliferation of MM.1S, MTS cell viability test; type: cell-based; conditions: multiple myeloma MM.1S cells, 7 days incubation, read-out: Tumor cell inhibitory activity
How it was run: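 MM.1S cells (20,000/well, RPMI 1640 with 10% FBS) exposed to 5-fold compound dilutions at 0.2% DMSO for 7 days at 37° C, 5% CO2. MTS added for 3-4 h; OD490-OD690 gave inhibition versus DMSO, IC50 fitted, mean of three experiments.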

MV-4-11 cells = assay: Inhibitory effect on the proliferation of MV-4-11 cells, MTS cell viability test; type: cell-based; conditions: acute leukemia MV-4-11 cells, 7 days incubation, read-out: Tumor cell inhibitory activity
Experimental: Method of tumor cell proliferation inhibition test: the inventors tested all the example compounds on hematologic tumor cells, multiple myeloma MMTs cell line and acute leukemia cell MV-4-11 cell line of some examples. The activity test method and results are as follows.
2. The Inhibitory Effect of Compounds on the Proliferation of MV-4-11 Cells, MTS Cell Viability Test: 1). Experimental Method:
MV-4-11 cells were cultured and collected with IMDM and 10% fetal bovine serum. The cell concentration was diluted according to 7 days, and 180 ul of cell suspension was added to each well of a 96-well cell plate to 2000 cells. 20 ul of DMSO with a final concentration of 0.2% was added to the control wells. The compound was diluted 5-fold from the 10 mM stock solution, and 20 ul was also added to the compound cell wells (the final concentration of DMSO was 0.2%). The cells were placed in a 37° C., 5% CO2 incubator and incubated for 7 days. After the reaction solution was prepared according to the MTS kit (Promega, G5430), 20 μL was added to each well, incubated in a 37° C., 5% CO2 incubator for 3-4 h. The 490 nm absorbance value was read with a microtiter plate, and the 690 nm absorbance value was used as the background value. OD490-OD690 was used as the final initial data. The formula for calculating the inhibition rate of the compound was: inhibition rate=(ODDMSO-ODcompound)/(ODDMSO-Oblank)×100%. The compound's proliferation inhibition IC50 was fitted by Graph Pad Prism 5.0. The experiment was repeated three times, and the average and standard deviation was calculated according to three parallel experiments each time.

With O=C1CCC(N2Cc3c(CCCCCN4CCC(c5noc6cc(F)ccc56)CC4)cccc3C2=O)C(=O)N1 (stereo not shown) [Example 22, 3-(4-(5-(4-(6-fluorobenzo[d]isoxazole-3-)piperidine-1-)pentyl)-1-oxoisoindoline-2-)piperidine-2,6-dione] the IC50 (MM.1S cells) was under 100 nM and the IC50 (MV-4-11 cells) was 110 nM.

Compound O=C1CCC(N2Cc3c(CCCCCN4CCC5(CC4)C(=O)Nc4cc(Cl)ccc45)cccc3C2=O)C(=O)N1 (stereo not shown) [Example 275, 3-(4-(5-(6-chloro-2-oxospiro[dihydroindole-3,4-piperidin]-1-yl)pentyl)-1-oxoisoindoline-2-yl)piperidine-2,6-dione] has an IC50 (MM.1S cells; Homo sapiens, MM1.S, 168 h) of 100 to 1000 nM and an IC50 (MV-4-11 cells; Homo sapiens, MV4-11, 168 h) of 630 nM.

O=C1CCC(N2Cc3c(CCCCCN4CCc5ccccc54)cccc3C2=O)C(=O)N1 (stereo not shown) [Example 107, 3-(4-(5-(indoline-1-)pentyl)-1-oxoisoindoline-2-)piperidine-2,6-dione] showed an IC50 (MM.1S cells; Homo sapiens, MM1.S, 168 h) of under 100 nM and an IC50 (MV-4-11 cells; Homo sapiens, MV4-11, 168 h) of 180 nM.

In the case of O=C1CCC(N2Cc3c(OCc4ccc(CN5CCOCC5)cc4)cccc3C2=O)C(=O)N1 (stereo not shown) [CC-220, reference compound], the IC50 (MM.1S cells; Homo sapiens, MM1.S, 168 h) is reported as under 100 nM and the IC50 (MV-4-11 cells; Homo sapiens, MV4-11, 168 h) is reported as over 20000 nM.

For O=C1CCC(N2Cc3c(CCCCN4CCN(c5cccc6ccsc56)CC4)cccc3C2=O)C(=O)N1 (stereo not shown) [Example 221, 3-(4-(4-(4-(benzothiophene-7-yl)piperazin-1-yl)butyl)-1-oxoisoindoline-2-yl)piperidine-2,6-dione], the IC50 (MM.1S cells; Homo sapiens, MM1.S, 168 h) was under 100 nM and the IC50 (MV-4-11 cells; Homo sapiens, MV4-11, 168 h) was 600 nM.

O=C1CCC(N2Cc3c(CCCCCN4CCc5ccc(Br)cc54)cccc3C2=O)C(=O)N1 (stereo not shown) [Example 114, 3-(4-(5-(5-bromoindoline-1-)pentyl)-1-oxoisoindoline-2-)piperidine-2,6-dione] gave an IC50 (MM.1S cells; Homo sapiens, MM1.S, 168 h) of 100 to 1000 nM and an IC50 (MV-4-11 cells; Homo sapiens, MV4-11, 168 h) of 220 nM.

O=C1CCC(N2Cc3c(CCCCCN4CCC5(CCc6ccccc65)CC4)cccc3C2=O)C(=O)N1 (stereo not shown) [Example 143, 3-(4-(5-(2,3-dihydrospiro[indene-1,4′-piperidine]-1′-)pentyl)-1-oxoisoindoline-2-)piperidine-2,6-dione] gave an IC50 (MM.1S cells; Homo sapiens, MM1.S, 168 h) of under 100 nM and an IC50 (MV-4-11 cells; Homo sapiens, MV4-11, 168 h) of 610 nM.

CC(=O)N[C@@H](CCCc1cccc2c1CN(C1CCC(=O)NC1=O)C2=O)C(=O)NCc1cccc(Br)c1 (stereo partly drawn) [Example 182, (2S)-2-acetylamino-N-(3-bromobenzyl)-5-(2-(2,6-dioxopiperidine-3-)-1-oxoisoindoline-4-)pentanamide] gave an IC50 (MM.1S cells; Homo sapiens, MM1.S, 168 h) of under 100 nM and an IC50 (MV-4-11 cells; Homo sapiens, MV4-11, 168 h) of 17 nM.

In the case of Nc1cccc2c1CN(C1CCC(=O)NC1=O)C2=O (stereo not shown) [Lenalidomide, lenalidomide, reference compound], the IC50 (MM.1S cells; Homo sapiens, MM1.S, 168 h) is reported as 100 to 1000 nM and the IC50 (MV-4-11 cells; Homo sapiens, MV4-11, 168 h) is reported as over 20000 nM.

Nc1cccc2c1C(=O)N(C1CCC(=O)NC1=O)C2=O (stereo not shown) [Pomalidomide, pomalidomide, reference compound] gave an IC50 (MM.1S cells; Homo sapiens, MM1.S, 168 h) of under 100 nM and an IC50 (MV-4-11 cells; Homo sapiens, MV4-11, 168 h) of over 20000 nM.

CC(C)C(=O)N[C@@H](CCCc1cccc2c1CN(C1CCC(=O)NC1=O)C2=O)C(=O)NCc1ccccc1 (stereo partly drawn) [Example 167, (2S)-N-benzyl-5-(2-(2,6-dioxopiperidine-3-)-1-oxoisoindoline-4-)-2-iso butyramidopentaneamide] showed an IC50 (MM.1S cells; Homo sapiens, MM1.S, 168 h) of under 100 nM and an IC50 (MV-4-11 cells; Homo sapiens, MV4-11, 168 h) of 35 nM.

Work on N#CC1(c2cc(Cl)ccc2Cl)CCN(CCCCCc2cccc3c2CN(C2CCC(=O)NC2=O)C3=O)CC1 (stereo not shown) [Example 248, 4-(2,5-dichlorophenyl)-1-(5-(2-(2,6-dioxopiperidine-3-yl)-1-oxoisoindoline-4-yl)pentyl)piperidine-4-carbonitrile] yielded an IC50 (MM.1S cells; Homo sapiens, MM1.S, 168 h) of 1000 to 20000 nM and an IC50 (MV-4-11 cells; Homo sapiens, MV4-11, 168 h) of 660 nM.

Cc1ccc(NC(=O)CCCOc2cccc3c2CN(C2CCC(=O)NC2=O)C3=O)cc1Cl (stereo not shown) [Example 158, N-(3-chloro-4-methylphenyl)-4-((2-(2,6-dioxopiperidine-3-)-1-oxoisoindoline-4-)oxy)butanamide] was tested, and the IC50 (MM.1S cells; Homo sapiens, MM1.S, 168 h) was under 100 nM and the IC50 (MV-4-11 cells; Homo sapiens, MV4-11, 168 h) was 14 nM.

O=C1CCC(N2Cc3c(CCC[C@H](NC(=O)C4CCC4)C(=O)NCc4ccccc4)cccc3C2=O)C(=O)N1 (stereo partly drawn) [Example 173, N-((2S)-1-(benzylamine)-5-(2-(2,6-dioxopiperidine-3-)-1-oxoisoindoline-4-)-1-oxopentyl-2-)cyclobutylcarboxamide] was tested, and the IC50 (MM.1S cells; Homo sapiens, MM1.S, 168 h) was under 100 nM and the IC50 (MV-4-11 cells; Homo sapiens, MV4-11, 168 h) was 29 nM.

N#CC1(c2cccc(Cl)c2)CCN(CCCCCc2cccc3c2CN(C2CCC(=O)NC2=O)C3=O)CC1 (stereo not shown) [Example 51, 4-(3-chlorophenyl)-1-(5-(2-(2,6-dioxopiperidine-3-)-1-oxoisoindoline-4-)pentyl) piperidine-4-carbonitrile] was tested, and the IC50 (MM.1S cells; Homo sapiens, MM1.S, 168 h) was under 100 nM and the IC50 (MV-4-11 cells; Homo sapiens, MV4-11, 168 h) was 570 nM.

In the case of O=C1CCC(N2Cc3c(CCCCCN4CCC(c5noc6cc(F)ccc56)CC4)cccc3C2=O)C(=O)N1 (stereo not shown) [Example 226, 3-(4-(5-(4-(6-fluorobenzisoxazole-3-yl)piperidin-1-yl)pentyl)-1-oxoisoindoline-2-yl)piperidine-2,6-], the IC50 (MM.1S cells) is reported as 1000 to 20000 nM and the IC50 (MV-4-11 cells) is reported as 510 nM.

For CC(=O)N[C@@H](CCCc1cccc2c1CN(C1CCC(=O)NC1=O)C2=O)C(=O)Nc1ccccc1 (stereo partly drawn) [Example 164, (2S)-2-acetylamino-5-(2-(2,6-dioxopiperidine-3-)-1-oxoisoindoline-4-)-N-phenylpentanamide], the IC50 (MM.1S cells; Homo sapiens, MM1.S, 168 h) was under 100 nM and the IC50 (MV-4-11 cells; Homo sapiens, MV4-11, 168 h) was 250 nM.
